Values of other authors as cited in patent publication US20150231284A1, “MOLECULAR PROBE FOR IMAGING OF PANCREATIC ISLET AND THE PRECURSOR, AND USE OF THE SAME” (Kyoto University, priority 2009, published 2015).

What was measured:
pancreatic islet cells = settings: Document 2; cited from earlier work
[1] = test system: GLP-1R-positive tumor cells; settings: Document 2; cited from earlier work

Q: Which “uptake in pancreatic islets” value (pancreatic islet cells) does the source give for Lys^40(Ahx-DTPA-^111In)Exendin-4(9-39) here?
A: Its value is “about 0.4%”.

Q: And the “uptake in the GLP-1R-positive tumor cells” value [1]?
A: The value was “about 7.5%”.
